Assay results as given in ChEMBL document CHEMBL6153174, “Design and Synthesis of Novel Deazapurine DNMT 1 Inhibitors with In Vivo Efficacy in DLBCL” (J Med Chem, 2025).
Calls of active or inactive are those of the source. The rule behind the calls is not given here.

Key:
Jurkat = assay: Antiproliferative activity against human Jurkat cells assessed as inhibition of cell viability measured after 72 hrs by MTT assay; type: functional, cell-based
[1] = Antiproliferative activity against human NK-YS cells assessed as inhibition of cell viability measured after 72 hrs by MTT assay; type: functional, cell-based
TMD8 [2] = assay: Induction of cell cycle arrest in human TMD8 cells assessed as accumulation of cells at G2/M phase at 1.0 uM incubated for 24 hrs by PI staining based flow cytometry analysis (reference value: 20.4%); type: functional
TMD8 [3] = assay: Antitumor activity against human TMD8 cells xenografted in mouse model assessed as tumor inhibition rate at 10 mg/kg, iv administered three times a week relative to control; type: functional; design: scale not given: the % may be the effect or the level left
TMD8 [4] = assay: Antitumor activity against human TMD8 cells xenografted in mouse model assessed as inhibition of DNA methylation at 10 mg/kg, iv administered three times a week; type: functional, organism-based
[5] = Subacute toxicity in Balb/C mouse assessed as effect on kidney at 30 mg/kg, iv administered three times in a week for 2 weeks; type: organism-based; conditions: in vivo, 336 h

Question: With `CN1CCC(Nc2nc(-c3ccnc(F)c3)nc3c2ccn3CCCN2CCCC2)CC1` as the compound, how does the IC50 (Jurkat) read?
Answer: 570 nM

Question: And the IC50 [1]?
Answer: 770 nM

Question: What about the Activity (TMD8 [2]) of the same compound?
Answer: 38.2%

Question: And the Activity (TMD8 [3])?
Answer: 54.61%

Question: What about the Activity (TMD8 [4]) of the same compound?
Answer: Active

Question: And the Activity [5]?
Answer: Non-toxic
